Experimental data reported in patent publication US20060069132A1, “Azolecarboxamide herbicides” (priority 2004, published 2006).

Tests used:
ducksalad [1] = assay: Test B flooded paddy test; type: in vivo, Heteranthera limosa; settings: 1000 g ai/ha, scale 0 to 100 (0 no effect, 100 complete control)
Method in brief: (§1)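 After treating 2-leaf paddy plants or 2–18 cm postemergence plants (1 to 4 leaves) with formulated chemical, researchers kept them in a greenhouse for 13–15 days. Effects were judged visually versus controls: 0 indicates none, 100 total control.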

corn = assay: Test C pre-/postemergence herbicide test; type: in vivo, Zea mays
Method in brief: (§2)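 Greenhouse-grown plants were evaluated visually 12 to 14 days after treatment, with 100 meaning complete control and 0 no effect. Application was preemergence, or postemergence at 2 to 18 cm.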

woolly cupgrass = assay: Test C pre-/postemergence herbicide test; type: in vivo, Eriochloa villosa
Method in brief: as §2

cocklebur = assay: Test C pre-/postemergence herbicide test; type: in vivo, Xanthium strumarium
Method in brief: as §2

[2] = tested on: common (oilseed) sunflower; assay: Test C pre-/postemergence herbicide test; type: in vivo, Helianthus annuus
Method in brief: as §2

ducksalad [3] = assay: Test C flooded paddy test; type: in vivo, Heteranthera limosa; settings: for Plant response rating, Ducksalad: 500 g ai/ha, visual rating after 12 to 14 days
blackgrass = assay: Test B postemergence herbicide test; type: in vivo, Alopecurus myosuroides
Method in brief: as §1

[4] = 125 g ai/ha, scale 0 (no effect) to 100 (complete control), visual, 12 to 14 days, preemergence
[5] = 250 g ai/ha, scale 0-100, preemergence
[6] = 500 g ai/ha, scale 0 to 100 (0 no effect, 100 complete control), visual, 12 to 14 days, preemergence
[7] = 62 g ai/ha, preemergence, scale 0 to 100
[8] = Preemergence, 500 g ai/ha, scale 0 to 100, 0 no effect, 100 complete control
[9] = 125 g ai/ha, scale 0 to 100 (0 no effect, 100 complete control)
[10] = 250 g ai/ha, scale of 0 to 100, 0 is no effect, 100 is complete control
[11] = scale 0 to 100 (0 no effect, 100 complete control)
[12] = 125 g ai/ha, visual rating, scale 0 (no effect) to 100 (complete control), postemergence
[13] = postemergence, 500 g ai/ha, scale 0 to 100, 0 is no effect, 100 is complete control
[14] = Postemergence, 500 g ai/ha, scale 0 (no effect) to 100 (complete control)

| Compound | Ducksalad plant response rating (ducksalad [1]) | Plant response rating, Corn (corn; [5]) | Plant response rating, Corn (corn; [6]) | Plant response rating, Cupgrass, Woolly (woolly cupgrass; [7]) | Plant response rating, Cupgrass, Woolly (woolly cupgrass; [5]) | Plant response rating, Cupgrass, Woolly (woolly cupgrass; [6]) | Plant response rating, Cocklebur (cocklebur; [7]) | Plant response rating, Cocklebur (cocklebur; [5]) | Plant response rating, Sunflower [2, 7] | Plant response rating, Sunflower [2, 5] | Plant response rating, Sunflower [2, 6] | Ducksalad plant response rating (ducksalad [3]; 62 g ai/ha, scale 0 to 100) | Ducksalad plant response rating (ducksalad [3]; [9]) | Ducksalad plant response rating (ducksalad [3]; [10]) | Plant response rating, Ducksalad (ducksalad [3]; [11]) | Blackgrass plant response rating (blackgrass; [12]) | Plant response rating, Corn (corn; [7]) | Plant response rating (0 = no effect, 100 = complete control), Corn (corn; 125 g ai/ha, preemergence) | Plant response rating (0 = no effect, 100 = complete control), Cupgrass, Woolly (woolly cupgrass; 125 g ai/ha, preemergence) | Plant response rating (0 = no effect, 100 = complete control), Cocklebur (cocklebur; 125 g ai/ha, preemergence) | other results |
| --- | --- | --- | --- | --- | --- | --- | --- | --- | --- | --- | --- | --- | --- | --- | --- | --- | --- | --- | --- | --- | --- |
| CCn1nc(C2(C)CC2)cc1C(=O)Nc1cc(C(=O)N(C)C)ccc1F [Compound 299] | 90 | 60 | 60 | 50 | 90 | 100 | 0 | 80 | 10 | 100 | 100 | 95 | 95 | 95 | 95 | 20 | – | – | – | – | Plant response rating, Corn (corn; [4]): 25; Plant response rating, Cupgrass, Woolly (woolly cupgrass; [4]): 70; Plant response rating, Cocklebur (cocklebur; [4]): 40; Cocklebur plant response rating (cocklebur; [8]): 95; Blackgrass plant response rating (blackgrass; [13]): 50 |
| CCc1nn(C(C)(C)C)nc1C(=S)Nc1cccc(C(=S)N(C)C)c1 [Compound 396] | 70 | 60 | 80 | 60 | 100 | 100 | 0 | 0 | 0 | 0 | 15 | 0 | 0 | 65 | 75 | 10 | 0 | 30 | 90 | 0 | Plant response rating, Cocklebur (cocklebur; [6]): 0; Plant response rating (0 = no effect, 100 = complete control), Sunflower ([2]; 125 g ai/ha, preemergence): 0; Blackgrass plant response rating (blackgrass; [14]): 30 |
| CCc1nn(C(C)(C)C)nc1C(=O)Nc1cccc(C(=S)N(C)C)c1 [Compound 395] | 90 | 85 | 90 | 85 | 100 | 100 | 0 | 80 | 0 | 50 | 55 | 15 | 20 | 55 | 55 | 20 | 0 | 45 | 95 | 15 | Plant response rating, Cocklebur (cocklebur; [6]): 85; Plant response rating (0 = no effect, 100 = complete control), Sunflower ([2]; 125 g ai/ha, preemergence): 0; Blackgrass plant response rating (blackgrass; [14]): 40 |
| CCC1=NN(C(C)(C)C)CC1C(=O)Nc1cc(C(=O)N(C)C)ccc1F (racemic) [Compound 343] | 90 | 70 | 80 | 40 | 70 | 100 | 30 | 80 | 10 | 80 | 100 | 40 | 80 | 90 | 90 | 0 | 40 | 70 | 65 | 80 | Plant response rating, Cocklebur (cocklebur; [6]): 100; Plant response rating (0 = no effect, 100 = complete control), Sunflower ([2]; 125 g ai/ha, preemergence): 75; Blackgrass plant response rating (blackgrass; [13]): 10 |
| CCn1nc(C(C)(C)C)cc1C(=S)Nc1cc(C(=S)N(C)C)ccc1F [Compound 305] | 80 | 45 | 45 | 20 | 60 | 70 | 10 | 65 | 0 | 0 | 50 | 0 | 0 | 0 | 0 | 20 | 0 | – | – | – | Plant response rating, Corn (corn; [4]): 40; Plant response rating, Cupgrass, Woolly (woolly cupgrass; [4]): 60; Plant response rating, Cocklebur (cocklebur; [4]): 15; Cocklebur plant response rating (cocklebur; [8]): 90; Blackgrass plant response rating (blackgrass; [13]): 30 |
| CCNC(=O)c1cccc(NC(=O)c2nn(C(C)(C)C)nc2C)c1 [Compound 392] | 80 | 80 | 90 | 30 | 60 | 85 | 0 | 20 | 10 | – | 100 | 45 | 75 | 85 | 85 | 20 | 30 | 50 | 40 | 5 | Plant response rating, Cocklebur (cocklebur; [6]): 80; Plant response rating (0 = no effect, 100 = complete control), Sunflower ([2]; 125 g ai/ha, preemergence): 50; Blackgrass plant response rating (blackgrass; [14]): 60 |
| CCc1nn(C(C)(C)C)cc1C(=O)Nc1cccc(C(=O)N(CC)CC)c1 [Compound 182, N-[3-[(diethylamino)carbonyl]phenyl]-1-(1,1-dimethylethyl)-3-ethyl-1H-pyrazole-4-carboxamide] | – | – | – | – | – | – | – | – | – | – | – | – | – | – | – | – | – | – | – | – | pest or weed control at 1000 g/ha (ducksalad [1]; Heteranthera limosa, 336 h, visual rating, 13 to 15 days, read-out: Ducksalad plant response rating): 60%; Corn plant response rating (corn; [8]): 0; Corn plant response rating (crop injury, 0 = no effect, 100 = complete kill) at 62 g/ha (corn; Zea mays, pre-emergence, 312 h, 62 g ai/ha, preemergence, scale 0 to 100): 0%; Corn plant response rating (crop injury, 0 = no effect, 100 = complete kill) at 125 g/ha (corn; Zea mays, pre-emergence, 312 h, 125 g ai/ha, scale 0 (no effect) to 100 (complete control), visual, 12 to 14 days): 0%; Corn plant response rating (crop injury, 0 = no effect, 100 = complete kill) at 250 g/ha (corn; Zea mays, pre-emergence, 312 h, 250 g ai/ha, scale 0 to 100 (0 no effect, 100 complete control), visual, 12 to 14 days): 0%; pest or weed control at 62 g/ha (woolly cupgrass; Eriochloa villosa, pre-emergence, 312 h, 62 g ai/ha, preemergence, scale 0 to 100, read-out: Plant response rating, Cupgrass, Woolly): 0%; pest or weed control at 125 g/ha (woolly cupgrass; Eriochloa villosa, pre-emergence, 312 h, 125 g ai/ha, scale 0 (no effect) to 100 (complete control), visual, 12 to 14 days, read-out: Plant response rating, Cupgrass, Woolly): 0%; pest or weed control at 250 g/ha (woolly cupgrass; Eriochloa villosa, pre-emergence, 312 h, 250 g ai/ha, scale 0 to 100 (0 no effect, 100 complete control), visual, 12 to 14 days, read-out: Plant response rating, Cupgrass, Woolly): 0%; Cupgrass, Woolly plant response rating (woolly cupgrass; [8]): 0; pest or weed control at 62 g/ha (cocklebur; Xanthium strumarium, pre-emergence, 312 h, 62 g ai/ha, preemergence, scale 0 to 100, read-out: Plant response rating, Cocklebur): 0%; pest or weed control at 125 g/ha (cocklebur; Xanthium strumarium, pre-emergence, 312 h, 125 g ai/ha, scale 0 (no effect) to 100 (complete control), visual, 12 to 14 days, read-out: Plant response rating, Cocklebur): 0%; pest or weed control at 250 g/ha (cocklebur; Xanthium strumarium, pre-emergence, 312 h, 250 g ai/ha, scale 0 to 100 (0 no effect, 100 complete control), visual, 12 to 14 days, read-out: Plant response rating, Cocklebur): 0%; pest or weed control at 500 g/ha (cocklebur; Xanthium strumarium, pre-emergence, 312 h, Preemergence, 500 g ai/ha, scale 0 to 100, 0 no effect, 100 complete control, read-out: Cocklebur plant response rating): 0%; pest or weed control at 62 g/ha ([2]; Helianthus annuus, pre-emergence, 62 g ai/ha, preemergence, scale 0 to 100, read-out: Plant response rating, Sunflower): 0%; pest or weed control at 125 g/ha ([2]; Helianthus annuus, pre-emergence, 125 g ai/ha, scale 0 (no effect) to 100 (complete control), visual, 12 to 14 days, read-out: Plant response rating, Sunflower): 0%; Sunflower plant response rating [2, 8]: 0; pest or weed control at 125 g/ha (blackgrass; Alopecurus myosuroides, post-emergence, 336 h, postemergence, 125 g ai/ha, visual rating, scale 0 (no effect) to 100 (complete control), read-out: Blackgrass plant response rating): 0%; pest or weed control at 500 g/ha (blackgrass; Alopecurus myosuroides, post-emergence, 336 h, postemergence, 500 g ai/ha, visual rating, scale 0 (no effect) to 100 (complete control), read-out: Blackgrass plant response rating): 0% |
